Laboratory results reported in PubChem BioAssay (NCI).
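Five concentrations, 48 hours, 96-well plates. TGI: total growth inhibition.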

Columns and labels:
Assay in all cases: growth of human tumour cells (NCI), 48 h
UACC-257 melanoma = test system: UACC-257 melanoma
SK-MEL-2 melanoma = test system: SK-MEL-2 melanoma
K-562 leukemia = test system: K-562 leukemia
HOP-62 NSCLC = test system: HOP-62 NSCLC
SK-MEL-5 melanoma = test system: SK-MEL-5 melanoma
SF-268 CNS = test system: SF-268 CNS
BT-549 breast = test system: BT-549 breast
SF-295 CNS = test system: SF-295 CNS
MALME-3M melanoma = test system: MALME-3M melanoma
LOX IMVI melanoma = test system: LOX IMVI melanoma
NCI-H23 lung = test system: NCI-H23 lung
ACHN renal = test system: ACHN renal
MDA-MB-231 breast = test system: MDA-MB-231 breast
EKVX NSCLC = test system: EKVX NSCLC
NCI/ADR-RES ovarian = test system: NCI/ADR-RES ovarian
OVCAR-4 ovarian = test system: OVCAR-4 ovarian
SNB-19 CNS = test system: SNB-19 CNS
HCT-15 colon = test system: HCT-15 colon
SNB-75 CNS = test system: SNB-75 CNS
CAKI-1 renal = test system: CAKI-1 renal

Structure (SMILES)	TGI (UACC-257 melanoma)	TGI (SK-MEL-2 melanoma)	TGI (K-562 leukemia)	TGI (HOP-62 NSCLC)	TGI (SK-MEL-5 melanoma)	TGI (SF-268 CNS)	TGI (BT-549 breast)	TGI (SF-295 CNS)	TGI (MALME-3M melanoma)	TGI (LOX IMVI melanoma)	TGI (NCI-H23 lung)	TGI (ACHN renal)	TGI (MDA-MB-231 breast)	TGI (EKVX NSCLC)	TGI (NCI/ADR-RES ovarian)	TGI (OVCAR-4 ovarian)	TGI (SNB-19 CNS)	TGI (HCT-15 colon)	TGI (SNB-75 CNS)	TGI (CAKI-1 renal)
CC(C)(C)OC(=O)NCCCCC(N)C(N)=O (stereo not given)	> 100 µM	> 100 µM	> 100 µM	> 100 µM	> 100 µM	> 100 µM	> 100 µM	> 100 µM	> 100 µM	> 100 µM	> 100 µM	> 100 µM	> 100 µM	> 100 µM	> 100 µM	> 100 µM	> 100 µM	> 100 µM	> 100 µM	> 100 µM
O=c1cc(NCCCCCO)[nH]c(=O)[nH]1	> 100 µM	> 100 µM	> 100 µM	> 100 µM	> 100 µM	> 100 µM	> 100 µM	> 100 µM	> 100 µM	> 100 µM	> 100 µM	> 100 µM	> 100 µM	> 100 µM	> 100 µM	> 100 µM	> 100 µM	> 100 µM	> 100 µM	> 100 µM
Nc1cc2c3c(c1)Oc1cc(N)cc4c1C3c1c(cc(N)cc1O4)O2	> 85.1 µM	> 81.9 µM	> 100 µM	> 88.1 µM	27.3 µM	25 µM	51.3 µM	> 96.6 µM	22.8 µM	41.6 µM	> 66.5 µM	> 51.3 µM	53.8 µM	> 47.7 µM	26.9 µM	> 100 µM	> 100 µM	> 31.6 µM	> 48.8 µM	36.1 µM
COc1cc(C2SC(N)=Nc3c2c(C)nn3C(=O)c2ccccc2O)cc(OC)c1OC (stereo not given)	> 10 µM	> 10 µM	> 10 µM	> 10 µM	> 10 µM	> 10 µM	> 10 µM	> 10 µM	> 10 µM	> 10 µM	> 10 µM	> 10 µM	> 10 µM	> 10 µM	> 10 µM	> 10 µM	> 10 µM	> 10 µM	6.85 µM	> 10 µM
COc1cc2c[n+](C)c3c4cc(OC)c(OC)cc4c(OC)cc3c2cc1OC	18.3 µM	> 86 µM	> 41.5 µM	> 100 µM	14.9 µM	18.7 µM	57 µM	> 100 µM	9.44 µM	> 76.5 µM	36.8 µM	> 100 µM	19.8 µM	> 100 µM	> 100 µM	> 69.5 µM	> 100 µM	> 100 µM	> 95.1 µM	> 100 µM
Cc1c2c(c(C)n1-c1ccccc1)C(=O)N(CCCCN1CCN(c3ccccc3)CC1)C2=O	22.2 µM	62.6 µM	37.6 µM	36.1 µM	13.6 µM	> 100 µM	49.3 µM	53.7 µM	20.9 µM	23.5 µM	48.5 µM	> 100 µM	24.1 µM	65.7 µM	83.9 µM	82.5 µM	> 100 µM	54.8 µM	> 100 µM	> 100 µM
